This passage reports cytotoxicity results from ChEMBL document CHEMBL3507680, “University of Dundee, Gates Library screen for HepG2 cell viability”.

A short description of this data set: Human HepG2 cell viability assay in 384 well format. It counts as toxicity, cell-based. Also noted: dose 125 nL, time 70.5 hour; concentration not given beside the values. Particulars: HepG2 cells, read-out: Inhibition.
Consider `COCC(=O)N1CCCC(c2nc(N(C)C)ncc2-c2ccccc2)C1` (stereo not given), for which the cytotoxicity at 70.5 h was determined as 4.41%.
Turning to `COCCC(=O)N1CCC(c2ccc3c(NC(C)C)n[nH]c3n2)C1` (stereo not given), the cytotoxicity at 70.5 h was -6.39%.
In the case of `Cc1cc(Cc2ccccc2C)cc(C2CCCNC2)n1` (stereo not given), the cytotoxicity at 70.5 h is -4.93%.
In the case of `CCS(=O)(=O)N1C[C@@H](O)[C@H](Oc2cccc(F)c2)C1`, the cytotoxicity at 70.5 h was -9.71%.
As for `O=C(O)c1ccccc1-c1ccc(CN2CCOCC2)cn1`, the figure is -7.9%; as for `Cc1cc(Cc2ccccc2)cc(C2CCCNC2)n1` (stereo not given), -5.23%; as for `Cc1ncc(CN)c(-c2cn(C)c3ccccc23)n1`, -7.92%.
As for `O=C(O)c1ccccc1-c1ccc(CN2CCC(CO)CC2)cn1`, the figure is -9.48%; as for `CNc1cc(C2CCN2c2ncccn2)nc(C)n1` (stereo not given), -6.05%; as for `CNC(=O)C1(C)CN(c2nnc(C)c3ccccc23)CCO1` (stereo not given), -6.81%.
The same measure for `CC(C)(C)OC(=O)N1CCn2c(nnc2C2CCCNC2)C1` (stereo not given): 6.76%; for `CC(=O)N1CCC(CCc2ccnc(Nc3ccccn3)c2)CC1`: 26.8%.
As to `Cn1cnc2ccc(NC(=O)CC3CCN(S(C)(=O)=O)CC3)cc21`, the cytotoxicity at 70.5 h came out at 12%.
Consider `CCn1c(C)nc2cc(NC(=O)CC3CCN(S(C)(=O)=O)CC3)ccc21`, for which the cytotoxicity at 70.5 h is -18.6%.
`O=C(O)c1ccccc1-c1ccc(CNC(=O)C2CCOCC2)cc1`: the cytotoxicity at 70.5 h was -4.99%.
The same measure for `Cc1n[nH]c(C)c1CC(=O)N1CCC(O)(CN2CCOCC2)C1` (stereo not given): -12.6%.
The same measure for `CC(=O)N1CCCC(C(=O)c2cnn(-c3ccc(F)cc3)c2N)C1` (stereo not given): -2.75%.
Take `COCC(=O)N1CCCC(C(=O)c2cnn(-c3ccc(F)cc3)c2N)C1` (stereo not given): the cytotoxicity at 70.5 h came out at 9.29%.
With `CCOc1ccc(CN2CCC(c3[nH]ncc3C)C2)cc1CO` (stereo not given), the cytotoxicity at 70.5 h is -7.99%.
`Cc1ccnc(NC(=O)c2cnc(C3CCCNC3)cn2)c1` (stereo not given): the cytotoxicity at 70.5 h is -4.33%.
Turning to `Nc1no[n+]([O-])c1C(=O)NCc1ccco1`, the cytotoxicity at 70.5 h was found to be 7.08%.
As to `Cc1ccc(N2CC(c3nccc(C)n3)C2)nn1`, the cytotoxicity at 70.5 h worked out at 9.5%.
On to `O=C(c1cc(-c2cccnc2)[nH]n1)N1CCCC(Cc2ccccn2)C1` (stereo not given), for which the cytotoxicity at 70.5 h came out at 9.07%.
Turning to `CS(=O)(=O)c1cncnc1C1CCCN(C(=O)NCc2ccccc2)C1` (stereo not given), the cytotoxicity at 70.5 h was -6.21%.
As for `CCc1nccn1CC(=O)Nc1cccc(N2CCCC2)c1`, the cytotoxicity at 70.5 h stood at 9.22%.
The same measure for `CC(C)(C)c1ccc(OCC(=O)O)c(CN2C[C@H]3C[C@H](O)C[C@H]3C2)c1`: 2.38%; for `Cc1cc(C(=O)N2CCOCC2c2nc(C)c[nH]2)nc(O)n1` (stereo not given): 3.31%.
Regarding `CCN(Cc1cccnc1)CC1(C)Cc2c(N)nc(N)nc2O1` (stereo not given), the cytotoxicity at 70.5 h is -1.96%.
With `CC(=O)N1CCC(c2nccnc2C)CC1`, the cytotoxicity at 70.5 h is -1.76%.
As to `CC(=O)N1CCCC1(C)c1nc(C)no1` (stereo not given), the cytotoxicity at 70.5 h came out at 0.978%.
For the molecule `Cc1nccnc1C1CCN(C(=O)C(C)C)CC1`, the cytotoxicity at 70.5 h was -5.9%.
For `CN1C[C@@H](c2cccc(F)c2)[C@H]2[C@H]1CCCCCN2C(=O)C1CC1`, the cytotoxicity at 70.5 h was found to be 2.38%.
In the case of `CCC(=O)N1CCCCC[C@@H]2[C@@H]1[C@H](c1cccc(F)c1)CN2C`, the cytotoxicity at 70.5 h was found to be 16.4%.
As to `CCc1cc(C(F)(F)F)n2nc(C3CCCN3C(=O)COC)cc2n1` (stereo not given), the cytotoxicity at 70.5 h is -4.23%.
Regarding `O=C(NCC1CCCO1)c1cc(-c2ccncc2)c2cnccc2n1` (stereo not given), the cytotoxicity at 70.5 h is -8.71%.
For `CNC[C@H]1CC[C@H](c2cc(CN(C)C(=O)c3cnccn3)n(C)n2)CC1`, the cytotoxicity at 70.5 h was -8.17%.
Consider `COc1ccccc1Cc1cncc(N2CC(C(=O)O)C2)n1`, for which the cytotoxicity at 70.5 h was -13.5%.
Regarding `c1nnc(Nc2cncc(C3CCCN3)n2)s1` (stereo not given), the cytotoxicity at 70.5 h is -7.63%.
The same measure for `O=C(O)C1(Cc2ccc(-c3cccs3)cc2)CCNC1` (stereo not given): -2.56%; for `Cc1nc(Nc2nncs2)cc(C2CNC2)n1`: -5.34%.
